Source: patent publication US6620792B1, “Pharmaceutical compositions containing monosialoganglioside GM1 or derivative thereof suitable for the treatment of parkinson's disease” (Fidia S.p.A., priority 1992, dated 2003)

Key:
[1] = test system: mesencephalic dopaminergic neurons; assay: TOPA neurotoxicity in mesencephalic dopaminergic neuron cultures, TH immunofluorescence; assay type: cell-based, rat
Procedure: Mesencephalic neuron cultures were prepared according to Dal Toso et al. (Dal Toso et al.: “Development and survival of neurons in dissociated fetal mesencephalic serum-free cell cultures: I. Effects of cell density and of an adult mammalian striatal-derived neuronotrophic factor (SDNF)”, J. Neurosci., 8 (3) 733-745, 1988) from the mesencephalic tegmentum of 14.5-15 days' rat embryos.
Neurons (0.75×10^6) were plated on a poly-L-ornithine substrate in 12-well (25 mm dia. each) clusters.
Cultures were used between the fourth and the sixth day without changing the medium. […]
(§1) 2-hour pretreatment before acute incubation with TOPA;
(§2) cotreatment only with LIGA 20 before acute incubation with TOPA;
(§3) pretreatment with/without cotreatment before (100 μM for 2 h) and/or during (100 μM for 24 h) prolonged incubation with TOPA. TOPA cytotoxicity was determined by evaluating cellular survival, and more precisely:
TH immunofluorescence (specific for tyrosine hydroxylase) in mesencephalic dopaminergic neurons, as described by Berger et al. (Berger B. et al.: “Long-term development of mesencephalic dopaminergic neurons of mouse embryos in dissociated primary cultures: morphological and histochemical characteristics”, Neurosci., 7, 193-205, 1982);
(§4) Cytotoxicity is expressed as per cent cellular survival.
The results of the two tests (in triplicate) were analysed statistically according to Duncan's test.

cerebellar granule cells = assay: TOPA neurotoxicity in cerebellar granule cell cultures, MTT assay; assay type: cell-based; conditions: for Neuronal survival (%): control cultures = 100%
Procedure: Granular cell cultures were obtained from 8-day rat cerebella and cultured (3×10^6 cells) on plates coated with poly-L-lysine substrate according to Skaper et al. (Skaper S. D. et al.: “Culture and use of primary and clonal neural cells”, Methods in Neurosciences, Ed. by P. M. Conn, Vol. 2, pp. 17-33, Academic Press, Orlando, 1990).
Twenty-four hours later, cytosine arabinoside (10 μM) was added to inhibit non-neuronal proliferation. Cerebellar granule cells were used 10-12 days later without changing the medium.
Cells were incubated with TOPA either for 40 minutes (100 μM acute exposure) or for 24 h (10 μM prolonged exposure).
Treatment with GM1, AGF2, AGF4 (100 μM) and LIGA 20 (1-30 μm) was carried out as follows:
as §1, §2, §3
MTT colorimetric assay of cerebellar neurons, as described by Mosmann (Mosmann T.: “Rapid colorimetric assay for cellular growth and survival: application to proliferation and cytotoxicity assays”, J. Immunol. Meth., 65, 55-63, 1983).
as §4
The results of the two tests (in triplicate) were analysed statistically according to Duncan's test. A brief description of same is reported below:
In FIG. 3 the dose-dependent protective effect of LIGA20 against TOPA-induced death of cultured cerebellar granule cells is represented. Cells were exposed concurrently to 100 μM TOPA and 1-30 μM LIGA20 or 200 μM GM1 in Locke's solution for 45 minutes (24° C.), washed and returned to their original medium. Survival was assessed 24 h later by the MTT method. Means±S.E.M. (n=9, 3 experiments). TOPA ( ), LIGA 20 ( ), GM1 ( ).
In vitro granule cells at the 11th day were incubated as indicated above. In the 40-minute exposure to TOPA, GM1 (100 μM) was used in 2-h pretreatment only. In the […] exposure to TOPA, GM1 (100 μM) was used either in 2-h pretreatment only or in 2-h pretreatment and in cotreatment with TOPA. The values are expressed with reference to the corresponding control cultures (=100%) and are an average (±S.D.) of two determinations, each being carried out in triplicate.

## N-dichloroacetyl lyso GM1 [LIGA20]
[1]; 30 μM LIGA20 cotreatment with 100 μM TOPA for 45 minutes, counted 24 h later, mean ± S.E.M., no drug 5.2 ± 1.1
  TH+ cells (% control): 83.9 ± 4.2 % control
Cerebellar granule cells; cotreatment with 100 μM TOPA for 45 minutes, 1-30 μM LIGA20, MTT 24 h later (FIG. 3), read-out: ED50 of protection against the acute toxicity of TOPA
  EC50: ~9 µM

## NC(Cc1cc(O)c(O)cc1O)C(=O)O (stereo not drawn) [TOPA, 6-hydroxy-dopa, reference compound]
[1]; TOPA 10 μM alone for 24 h, average ± S.D., control 244 ± 20
  No. of TH+ cells: 62 ± 8 (a)
Cerebellar granule cells; TOPA 10 μM alone, 24-h exposure
  Neuronal survival (%): 17.1 ± 1.4%
Cerebellar granule cells; TOPA 100 μM alone, 40-minute exposure
  Neuronal survival (%): 22 ± 2.0%

B1: BDNF: brain-derived neurotrophic factor (protein, UniProt P23560 19-247, looked up)
Neurotrophic factor BDNF …: APMKEANIRGQGGLAYPGVRTHGTLESVNGPKAGSRGLTSLADTFEHVIEELLDEDQKVRPNEENNKDADLYTSRVMLSSQVPLEPPLLFLLEEYKNYLDAANMSMRVRRHSDPARRGELSVCDSISEWVTAADKKTAVDMSGGTVTVLEKVPVSKGQLKQYFYETKCNPMGYTKEGCRGIDKRHWNSQCRTTQSYVRALTMDSKKRIGWRFIRIDTSCVCTLTIKRGR
[1]; BDNF alone at 1 ng/ml
  neuroprotective activity alone against TOPA-induced neurotoxicity: no neuroprotective activity of their own
